# Experimental data published in PubChem BioAssay (NCI).
#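 These data come from cells grown in 96-well plates and exposed to compound for 48 hours at five concentrations. Here, GI50 denotes the concentration required for 50% inhibition of growth. TGI marks complete inhibition of growth.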
# Experiments:
# Assay in all cases: NCI anticancer screen, dose series, 48 h
# MALME-3M melanoma = tested on: MALME-3M melanoma
# HCT-116 colon = tested on: HCT-116 colon
# HCT-15 colon = tested on: HCT-15 colon
# UACC-62 melanoma = tested on: UACC-62 melanoma
# EKVX NSCLC = tested on: EKVX NSCLC
# NCI-H226 lung = tested on: NCI-H226 lung
# CAKI-1 renal = tested on: CAKI-1 renal
# T-47D breast = tested on: T-47D breast
# HS 578T breast = tested on: HS 578T breast
# BT-549 breast = tested on: BT-549 breast
Compound,TGI (MALME-3M melanoma),TGI (HCT-116 colon),TGI (HCT-15 colon),TGI (UACC-62 melanoma),TGI (EKVX NSCLC),TGI (NCI-H226 lung),TGI (CAKI-1 renal),GI50 (T-47D breast),TGI (T-47D breast),GI50 (MALME-3M melanoma),GI50 (HS 578T breast),TGI (HS 578T breast),GI50 (HCT-15 colon),GI50 (UACC-62 melanoma),GI50 (EKVX NSCLC),GI50 (BT-549 breast),TGI (BT-549 breast),GI50 (CAKI-1 renal),GI50 (NCI-H226 lung),GI50 (HCT-116 colon)
COc1cc2ccc1-c1cc(ccc1O)CC1c3cc4c(cc3CCN1C)Oc1c(OC)cc3c(c1O4)C(C2)N(C)CC3 (stereo not given),3.48 µM,2.89 µM,3.12 µM,3.44 µM,4.57 µM,4.08 µM,5.79 µM,–,–,–,–,–,–,–,–,–,–,–,–,–
CC[C@H](Nc1nc(N)nc(N)c1Cl)c1nc2cccc(NCc3ccc(C(=O)NO)cc3)c2c(=O)n1-c1ccccc1,4.4 µM,–,4.75 µM,2.81 µM,3.78 µM,–,5 µM,2.15 µM,10.7 µM,1.36 µM,2.62 µM,10.9 µM,2.02 µM,1.41 µM,1.75 µM,2.13 µM,5.69 µM,2 µM,–,–
Cc1ncc(CO)c(CN)c1O,> 100 µM,> 100 µM,> 100 µM,> 100 µM,> 100 µM,> 100 µM,> 100 µM,–,> 100 µM,–,–,> 100 µM,–,–,–,–,> 100 µM,–,–,–
COc1cnc2c(c1)C(=O)c1c-2n(CCCN2CCNCC2)c(=O)c2cc(Cl)ccc12,–,–,–,–,–,4.91 µM,1.91 µM,8.98 µM,50.3 µM,–,–,–,–,–,–,–,–,0.414 µM,1.04 µM,–
CC(C)CNc1nc(N)[nH]c(=O)c1NC=O,> 100 µM,> 100 µM,> 100 µM,> 100 µM,> 100 µM,> 100 µM,> 100 µM,–,> 100 µM,–,–,> 100 µM,–,–,–,–,> 100 µM,–,–,–
Cc1c2ccnc(-c3ccccc3)c2cc2c1[nH]c1ccccc12,9.31 µM,4.61 µM,9.62 µM,5.48 µM,12.5 µM,5.23 µM,6.96 µM,–,–,–,–,–,–,–,–,–,–,–,–,–
Cn1cnc([N+](=O)[O-])c1SCC(=O)O,> 100 µM,> 100 µM,> 100 µM,> 100 µM,> 100 µM,> 100 µM,> 100 µM,–,> 100 µM,–,–,> 100 µM,–,–,–,–,> 100 µM,–,–,–
O=C(c1cc(Br)ccc1O)c1cc(Br)ccc1O,31.6 µM,29.4 µM,38.5 µM,25.8 µM,30.3 µM,42 µM,32.2 µM,–,29.2 µM,–,–,> 100 µM,–,–,–,–,33.9 µM,–,–,–
NCS(=O)(=O)O,> 100 µM,> 100 µM,> 100 µM,> 100 µM,> 100 µM,> 100 µM,> 100 µM,–,> 100 µM,–,–,> 100 µM,–,–,–,–,> 100 µM,–,–,–
C[n+]1cccc(/C=C/c2ccc3cccc(O)c3n2)c1,93.5 µM,> 100 µM,> 100 µM,> 100 µM,> 100 µM,> 100 µM,> 100 µM,–,> 100 µM,–,–,> 100 µM,–,–,–,–,> 100 µM,–,–,–
C[C@H]1CCC/C=C/[C@@H]2C[C@H](O)C[C@H]2[C@H](O)[C@@H](S(=O)CCN)CC(=O)O1 (stereo not given in full),0.382 µM,0.169 µM,10.8 µM,> 82 µM,> 100 µM,0.199 µM,–,0.116 µM,0.544 µM,< 0.0138 µM,0.207 µM,> 100 µM,0.28 µM,0.0197 µM,0.0891 µM,0.0377 µM,> 100 µM,0.0979 µM,0.041 µM,0.0569 µM
COc1cc2c(cc1OC)C(Cl)C(c1ccc(Cl)cc1)=C2Cl (stereo not given),56.8 µM,–,41.4 µM,40.4 µM,59.7 µM,50.6 µM,40.3 µM,–,–,–,–,–,–,–,–,–,–,–,–,–
Cc1cc(=O)[nH]c(NN2C(Cl)C(=O)C2c2cccc([N+](=O)[O-])c2)n1 (stereo not given),–,49.9 µM,31.5 µM,42.5 µM,> 100 µM,46.9 µM,–,–,–,–,–,–,–,–,–,–,–,–,–,–
c1ccc2c[n+](CCCCCCCCCC[n+]3ccc4ccccc4c3)ccc2c1,> 10 µM,> 10 µM,> 10 µM,> 10 µM,> 10 µM,> 10 µM,> 10 µM,–,> 10 µM,–,–,> 10 µM,–,–,–,–,> 10 µM,–,–,–
CC(C)(C)C1CCC2(CC1)CCN(CCCN1CCOCC1)CC2,39.4 µM,> 59.7 µM,> 57.9 µM,25 µM,> 100 µM,> 100 µM,> 88 µM,–,> 100 µM,–,–,> 100 µM,–,–,–,–,> 100 µM,–,–,–
CN(C)CCNC(=O)c1cccc2nc3c4ccccc4c4ccccc4c3nc12,3.6 µM,3.21 µM,3.13 µM,5.51 µM,11 µM,28.1 µM,47.7 µM,–,34.1 µM,–,–,–,–,–,–,–,6.25 µM,–,–,–
O=C(O)c1ccccn1,–,> 100 µM,> 100 µM,> 100 µM,> 100 µM,> 100 µM,> 100 µM,–,> 100 µM,–,–,> 100 µM,–,–,–,–,> 100 µM,–,–,–
CN(C)c1ccc(C2CC(=O)C(C#N)=C(c3ccccc3)NN2C)cc1 (stereo not given),> 100 µM,> 100 µM,32.5 µM,–,–,> 100 µM,> 100 µM,–,–,–,–,–,–,–,–,–,–,–,–,–
N=C(N)c1ccc(-c2ccc(-c3ccc(Cl)cn3)s2)cc1,3.14 µM,–,3.08 µM,3.38 µM,–,12 µM,–,–,–,1.68 µM,2.05 µM,5.35 µM,1.61 µM,1.84 µM,–,–,–,–,2.76 µM,–
CN(C)c1ccc2nc3c(C(=O)O)cc(=O)c(O)c-3oc2c1,31.7 µM,80.1 µM,> 100 µM,46 µM,81 µM,> 100 µM,> 100 µM,–,47.4 µM,–,–,> 100 µM,–,–,–,–,42.8 µM,–,–,–
CN(C)[C@@H]1C(=O)C(C(=O)NCNCCCC(=O)O)=C(O)[C@@]2(O)C(=O)C3=C(O)c4c(O)cccc4[C@@](C)(O)[C@H]3C[C@@H]12,–,> 100 µM,> 100 µM,> 100 µM,> 100 µM,> 100 µM,> 100 µM,–,–,–,–,–,–,–,–,–,–,–,–,–
O=C1c2ccccc2C(=O)c2c(NCCNC(=O)C3CCCN3)ccc(NCCNC(=O)C3CCCN3)c21 (stereo not given),> 100 µM,27.5 µM,> 100 µM,> 100 µM,> 100 µM,> 100 µM,> 100 µM,–,> 100 µM,–,–,> 100 µM,–,–,–,–,> 100 µM,–,–,–
